Drawing on a melting point compilation (Tetko et al.; mined from patent text by program, amines drawn as free bases though some values may be those of a salt), this text covers melting point for 91 molecules.

The structures appear in SMILES notation. A value given as a limit tells only on which side of the number the result lay.

The term melting point denotes the temperature of the solid-liquid transition.

As to `Cc1nccn1-c1cc(N)cc(C(F)(F)F)c1`, the melting point was 127 to 131 °C.
Then `COc1ccc(-c2nc(C(F)F)oc2-c2ccc(OCCNC(N)=O)cc2)cc1`, with 146 to 149 °C; and `CCOC(=O)c1c(C)cc2c(c1C)c(=O)n(-c1ccccc1Cl)c(=O)n2CC(=O)N1CCN(C)CC1`, with 64 to 65 °C.
The figure for `O=C1c2ccccc2C(=O)N1CC(Cc1c[nH]c([N+](=O)[O-])n1)ON1C(=O)c2ccccc2C1=O` (stereo unspecified) is 119 to 121 °C; for `CCOC(=O)C(OS(N)(=O)=O)c1ccccc1` (stereo unspecified) it is 91 to 93 °C; for `Cc1ccc(-c2ccc(F)cc2)cc1-c1c(O)c(C)nn(C)c1=O` it is 216 to 217 °C.
Then `CCCCCCS(=O)(=O)c1ccc(S(=O)(=O)CCCCCC)nc1`, with 135 to 136 °C; and `O=C1c2cccc3cc4ccccc4c(c23)C(=O)N1CCCNCCNCCCN1C(=O)c2cccc3cc4ccccc4c(c23)C1=O`, with 180 °C.
`Nc1c(F)c(-c2ccc(Cl)cc2)nc(C=O)c1Cl` registered a melting point of 166 to 169 °C.
Then `CS(=O)(=O)ON=C(Cl)c1ccccc1`, with 106 to 108 °C.
The molecule `COc1ccc(OC)c(Cc2ccc3nc(N)nc(N)c3c2)c1` registered a melting point of 190 to 192 °C.
For `CCCCn1c(S)nc2ccccc2c1=O`, the melting point is 167 to 172 °C.
The figure for `O=C(O)c1cnn2c(C(F)F)cc(-c3ccc(C(F)(F)F)c(Cl)c3)nc12` is 216 °C; for `c1ccc(Sc2ccc(-c3ccc(Sc4ccccc4)cc3)cc2)cc1` it is 116 to 117 °C.
For the molecule `CCCCCCCCCC(O)P(=O)(O)O` (stereo unspecified), the melting point came out at 164 °C.
Then `COc1ccc(C(=O)O)cc1NC(=O)[C@H](CCCNC(=N)N[N+](=O)[O-])NC(=O)OCc1ccccc1`, with 208 to 209 °C; and `Cc1cc(-c2ccc(Cl)cc2)nc(-n2cnc(-c3ccc(S(N)(=O)=O)s3)c2)n1`, with 281 °C; and `CCC1CCCCN1C(=O)C=Cc1c(-c2cccc(Cl)c2)nn2ccccc12` (stereo unspecified), with 100 to 104 °C.
The figure for `COc1ccc2c(c1OC)CCC1CNC(=O)C21` (stereo unspecified) is 185 to 187 °C; for `CCc1ccc(N)c(C(=O)c2ccccc2)c1` it is 57 to 59 °C; for `CC(Cl)(Cl)C1(Cl)N=C(Cl)C(Cl)=N1` it is 58 to 60 °C.
The figure for `CCOC(=O)/C(=N\OCc1ccccc1)c1csc(N)n1` is 133 to 134 °C.
Molecule `OCCCC1=NN(c2nc3ccccc3s2)C(O)(c2ccc(Cl)cc2)C1` (stereo unspecified) showed a melting point of 132 to 134 °C.
Then `O=c1[nH]ccc2nc(C(F)(F)F)nn12`, with 203 to 205 °C.
The figure for `N#Cc1cnc2cc(-c3csc(C=O)c3)ccc2c1Nc1ccc(Cl)cc1Cl` is 286 to 288 °C; for `CCCCNCc1cn(CCC(=O)NC(C)(C)c2ccc(Cl)cc2)cn1` it is 115 to 117 °C.
Then `CNc1nc(=O)n(CCCN2CCN(C(c3ccccc3)c3ccccc3)CC2)c2ccccc12`, with 238 to 240 °C; and `Cc1c(C)c2c(c(C)c1O)SC(C)O2` (stereo unspecified), with 125 to 127 °C; and `ON=C1c2ccccc2CCC1c1ccccc1` (stereo unspecified), with 156 to 157 °C.
Consider `CC(C)c1nc(CCOCc2ccccc2)n(C)c1Sc1cc(Cl)cc(Cl)c1`, for which the melting point fell in the range of 101 to 103 °C.
The figure for `O=C1N=C(N2CCOCC2)SC1Cc1cccc(-c2ccc(O)c(C34CC5CC(CC(C5)C3)C4)c2)c1` (stereo unspecified) is 129 to 131 °C.
The figure for `CCCCc1nc2sccc2n1Cc1ccc(-c2ccccc2C(=O)O)cc1` is 203 °C.
Then `O=C(O)c1csc(Nc2ccc(C(F)(F)F)cc2)n1`, with 255 to 259 °C.
As for `CCOC(=O)CCCCCCC1NC(=O)NC1=O` (stereo unspecified), the melting point was determined as 110 °C.
The figure for `CC1(C)OCC[C@@H]2[C@H](C(O)CBr)C(=O)N21` (stereo partly specified) is 141 to 142 °C.
In turn, `NCCCCCCCCO` showed a melting point of 48 to 53 °C.
The figure for `CCC1(CCCCN2CCN(c3cccc4c3OCCO4)CC2)C(=O)Nc2ccccc21` (stereo unspecified) is 169 to 170 °C; for `COc1ccc(-c2ccc3nnc(-c4ccccc4OC)n3n2)cc1OC` it is 95 to 97 °C.
As to `CC(C)(C)C(=O)Oc1n[nH]c(=O)c2nc3cc(Cl)ccc3c(O)c12`, the melting point lay within 352 to 357 °C.
Then `CNC(=O)C=C(c1ccc(C#N)cc1)n1ccnc1`, with 172 to 180 °C; and `CCCCSc1nc(N)nc2c1ncn2C1C=CC(CO)C1` (stereo unspecified), with 120 to 123 °C.
As to `Cc1cccc(NC(=O)NCC(=O)N(c2ccccc2)c2ccccc2CC(=O)NC(C)(C)C)c1`, the melting point turned out to be 216 °C.
The figure for `CC(=O)N(c1ccccc1)c1[nH]c2ccccc2c1Sc1ccccc1` is 66 to 68 °C.
The figure for `CCCCCCCCCCCCNC=C1C(=O)ON=C1C` is 57 °C; for `O=C(CN(Cc1ccc(OCc2ccccc2)cc1)C(=O)[C@H](Cc1c[nH]cn1)NC(=O)OCc1ccccc1)NCCCCc1ccccc1` it is 58 to 61 °C; for `CC(C)(C)c1cc(C(=O)NNC(=O)c2occ(-c3ccccc3)c2-c2ccccc2)ccc1O` it is 244 to 247 °C.
The figure for `COC1=NS(=O)N=C1NCCCCC#CCN1CCCCC1` (stereo unspecified) is 134 to 136 °C; for `CNC(=S)Nc1ccc(C)cn1` it is 161 °C.
The molecule `CCOC(=O)CCCSC(=S)NCc1ccc(Cl)cc1` registered a melting point of 61 to 62 °C.
The figure for `O=C1C=C2CCCCC2N1c1ccc(O)cc1` (stereo unspecified) is 210 °C; for `COc1ccc(NCCOc2ccc3ccccc3c2)cc1` it is 92 °C.
As for `O=C(O)CC1CCC2(CC1)OOC1(O2)C2CC3CC(C2)CC1C3` (stereo unspecified), the melting point was 146 to 148 °C.
The figure for `CC(=O)Oc1ccc(CC(CC(=O)O)N2C(=O)c3ccccc3C2=O)cc1` (stereo unspecified) is 151 to 154 °C; for `O=C(Nc1cc(C2CC2)n[nH]1)c1ccc[nH]1` it is 207 to 209 °C.
`O=c1oc(-c2ccc(OCC3CCCCC3)cc2)cc(O)c1SCCc1ccccc1` displayed a melting point of 130 to 132 °C.
Then `COc1c(Cl)cc(C(=O)Cl)cc1Cl`, with 153 to 157 °C.
The figure for `COc1cc(Sc2ccncc2)ccc1[N+](=O)[O-]` is 97 to 100 °C; for `O=C(O)c1ccc2n1Cc1ccccc1N(C(=O)COc1ccc(Cl)cc1)C2` it is 168 °C; for `Cc1cc(Br)cnc1CCCCN=C(NCCCc1c[nH]cn1)NC(=O)c1ccccc1` it is 126 to 128 °C.
The figure for `O=C1N(CC2CCCO2)c2ccccc2C12COc1cc3c(cc12)C(=NO)CO3` (stereo unspecified) is 82 to 100 °C; for `Cc1c(SCCCCSCCn2c([N+](=O)[O-])cnc2C)ccnc1CSc1nc2ccccc2[nH]1` it is 160 to 162 °C.
`CC(C)(C)OC(=O)NCCNC(=O)c1ncsc1-c1cccc(OCc2cccc(C#N)c2)c1` came in with a melting point of 115 °C.
The figure for `COc1cc2c(cc1OC)C(Cc1cc(I)c(NC(C)=O)c(I)c1)N(C(=O)C(F)(F)F)CC2` (stereo unspecified) is 218 to 219 °C.
The molecule `CC(C)(C)n1nc(Cc2ccccc2)c(C#N)c1N` displayed a melting point of 106 to 110 °C.
Then `CCCC[C@H]1CC[C@H](c2ccc(-c3ccc(CCc4ccc(F)cc4)cc3)c(F)c2)CC1`, with 68 °C; and `Cc1ccccc1NC(=O)c1ccc(C(=O)N2Cc3cccn3Cc3ccccc32)cc1`, with 228 to 231 °C.
Then `C#CCOc1ccc(OCC2OC2(C)C)cc1` (stereo unspecified), with 72 to 73 °C; and `COc1ccc2ccc(O)c(N=O)c2c1`, with 122 to 124 °C.
The figure for `COC(=O)c1ccc2[nH]c3cnc(C(=O)OC)c(C)c3c2c1` is 199 to 204 °C; for `CC(C)=CCn1c(N(C)C[C@@H](C)N)nc2c1c(=O)n(C)c(=O)n2C` it is 101 to 104 °C.
The molecule `O=c1[nH]c2ccc(-c3cc(=O)c4ccccc4o3)cc2o1` came in with a melting point of 348 °C.
The molecule `OC(Cn1cncn1)(c1ccc(Cl)cn1)c1ccc(Cl)cn1` showed a melting point of 98 to 100 °C.
Regarding `CCN1CCC2(c3cccc(O)c3)Cc3[nH]c(C(=O)N(CC)CC)c(C)c3CC2C1` (stereo unspecified), the melting point is 221 to 223 °C.
Then `O=C(NC1CC1)N1CCc2[nH]cnc2C1`, with 215 °C.
The figure for `COc1ccc(Nc2cc(C)nc(SCC(N)=NO)n2)cc1` is 189 to 191 °C.
The figure for `COc1cc(I)c(Oc2cnc(N)nc2N)cc1I` is 136 to 138 °C.
As to `CS(=O)(=O)c1ccc(-c2cnn(Cc3ccccn3)c(=O)c2-c2ccc(F)cc2)cc1`, the melting point was in the range of 182 to 184 °C.
For the molecule `CC1(C)SC(c2ccncc2)NC1C(=O)O` (stereo unspecified), the melting point was in the range of 149 to 151 °C.
The figure for `COc1ccc(-n2c(=O)[nH]c3c(C(N)=O)nc(-c4cccc(O)c4)nc32)c(F)c1` is more than 260 °C.
The figure for `CCCCCCCCCCCCCCCc1cccc(OC)c1C1NC(=O)NC(C)=C1C(=O)OCC` (stereo unspecified) is 91 to 93 °C; for `Nc1ccc(S(=O)(=O)Nc2cccc3c(Cl)c[nH]c23)cc1` it is 174 to 176 °C; for `C/C=C(\C)CNc1cccc(-c2ccnc3c(C(=O)c4cccs4)cnn23)c1` it is 118 to 120 °C.
The figure for `COc1cc(C)c2ccc(Br)cc2n1` is 58 to 60 °C; for `Cn1cc(C2=C(c3cn(CCO)c4ccccc34)C(=O)NC2=O)c2ccccc21` it is 250 to 252 °C.
`CC(C)[C@H](NC(=O)N(C)Cc1ccccn1)C(=O)N[C@@H](Cc1ccccc1)[C@@H](O)C[C@H](Cc1ccccc1)NC(=O)OCc1cccnc1` registered a melting point of 69 to 71 °C.
The figure for `CNC(=S)NCCS(=O)Cc1nc[nH]c1C` (stereo unspecified) is 139 to 140 °C; for `CC(=O)Nc1ccc2c(c1)CCN2NC(C)=O` it is 217 to 218 °C; for `CSc1nc(=O)cc(N)n1-c1ccc(Br)cc1` it is 138 to 140 °C.
Take `CC1(C)OC(=O)C(c2ccc(-c3cscn3)cc2)=C1c1ccc(S(C)(=O)=O)cc1`: the melting point is 216 °C.
Then `CON=C(Nc1nc(OC)nc(OC)n1)NS(=O)(=O)c1ccccc1S(=O)(=O)OC`, with 148 to 150 °C.
The figure for `O=C1N(Cc2ccc(OCCO)cc2)c2ccccc2C12COc1cc3c(cc12)OCCO3` (stereo unspecified) is 196 to 197 °C.
